According to PMC7118210 (Frontiers in Pharmacology, 2020):

Columns and labels:
[1] = Metabolites in rat liver microsomes (systems I-rat, II-rat); type: in vitro ADME, Sprague-Dawley rat
Procedure: Then, NADPH-B (10 μl) was added and incubated for 2 h. […] Then, UDPGA (50 μl) was added and incubated for 2 h. […] Then, UDPGA (50 μl) was added and incubated for 2 h. In addition, the naringenin solution (1 mM, 10 μl) was evaluated in rat systems I, II, and III as above.
(§1) The incubated solution (500 μl) of systems I-rat, II-rat, III-rat, I-human, and II-human were extracted with ethyl acetate (500 μl) for at least 3 min by vortexing and centrifuged for 10 min at 13,000 rpm and 4°C. The extraction process described above was performed twice and all supernatants were transferred into centrifuge tubes, dried with N2, and dissolved with methanol-water (1:1, v/v). All samples were injected into a UPLC/Q-TOF-MS system consisting of a Waters Acquity ultra performance liquid chromatography (UPLC) coupled with a Micromass micro™ quadrupole time-of-flight mass spectrometry (Q-TOF-MS) system (Waters Corp., Milford, MA, USA), equipped with an electrospray ionization source, and controlled by the MassLynx (v. 4.1) software. Separation was performed on a Waters Acquity UPLC BEH C18 column (50 mm × 2.1 mm, 1.7 μm) at 40°C. The mobile phase consisted of 0.1% formic acid (v/v) in water (A) and methanol (B) using a linear gradient of 95% to 60% A (0–25 min), 60% to 40% A (25–35 min), 40% to 10% A (35–40 min), 10% A (40–43 min), 10% to 95% A (43–44 min), and 95% A (44–45 min). The injection volume was 5 μl with flow rate of 0.2 ml min^-1. The Q-TOF-MS worked in a full scan mode (100–1,200 m/z), selection ion mode, and product ion mode, in negative ion mode, respectively. The conditions were as follows: capillary voltage 3,000 V, sample cone voltage 30 V, extraction cone voltage 2.0 V, source temperature 100°C, desolvation temperature 350°C, cone gas (N2) flow rate of 40 L/h, desolvation gas (N2) flow rate of 700 L/h, low collision energy 6.0 eV, and high collision energy 20–80 eV. Compounds were detected with accurate mass using leucine enkephalin for mass correction at 554.2615 (m/z) in negative ionization mode.

[2] = Metabolites in human liver microsomes (systems I-human, II-human); type: in vitro ADME
Procedure: Then, NADPH-B (10 μl) was added and the mixed solution incubated for 2 h. […] Next, UDPGA (50 μl) was added and the mixed solution incubated for 2 h. In addition, the naringenin solution (1 mM, 10 μl) was evaluated in human systems I and II as above.
as §1

| SMILES | found in rat liver microsomes, incubation of naringenin (S) [1] | found in human liver microsomes, incubation of naringenin (S) [2] |
| --- | --- | --- |
| O=C1C[C@@H](c2ccc(O)c(O)c2)Oc2cc(O)cc(O)c21 [M7, Eriodictyol] | + | + |
| O=c1cc(-c2ccc(O)cc2)oc2cc(O)cc(O)c12 [M6, Apigenin] | + | + |
| COc1ccc([C@@H]2CC(=O)c3c(O)cc(O)cc3O2)cc1O [M8, Hesperetin] | + | – |
